Test results taken from patent US10239881B2, “RIPK2 inhibitors and method of treating cancer with same” (University Health Network, priority 2014, dated 2019).
Blank lines part the entries; values can stand above or below the compound they belong to.

Assays:
human RIPK2 kinase = human RIPK2 kinase (Homo sapiens (Human), UniProt O43353); experiment: RIPK2 inhibition assay (indirect ELISA); type: biochemical; details: His-RIPK2 0.6 nM, 6 μM ATP; read-out: RIPK2 IC50 range
Description: Active RIPK2 was purchased from Life Technologies as His-tagged of catalityc domain (amin acids 1-299) of human RIPK2 kinase expressed in insect cells. Amino terminal 6 histidine, sumo tagged human TTK (residues 1-275) was expressed in E. coli, and purified to >95% homogeneity by Ni^2+ agarose, gel filtration, and ion exchange chromatography.
RIPK2 activity was measured using an indirect ELISA detection system. His—RIPK2 (0.6 nM) was incubated in the presence of 6 μM ATP (Sigma cat # A7699), 20 mM Hepes, pH 7.5, 1 mM EGTA, 2.5 mM MgCl2, 2.5 mM MnCl2 and 0.01% Triton X-100 in a 96 well microtitre plate pre-coated with amino terminal 6 histidine, sumo tagged TTK (amino acid residues 1-275). The reaction was allowed to proceed for 30 minutes, followed by 5 washes of the plate with Wash Buffer (phosphate buffered saline supplemented with 0.2% Tween 20), and incubation for 30 minutes with a 1:3000 dilution of primary antibody (Cell Signaling cat #9381). The plate was washed 5 times with Wash Buffer, incubated for 30 minutes in the presence of secondary antibody coupled to horse radish peroxidase (BioRad cat #1721019, 1:3000 concentration), washed an additional 5 times with Wash Buffer, and incubated in the presence of TMB substrate (Sigma cat # T0440). The colorimetric reaction was allowed to continue for 5 minutes, followed by addition of stop solution (0.5 N H2SO4), and quantified by detection at 450 nm with either a monoChromatic or filter based plate reader (Molecular Devices M5 or Beckman DTX880, respectively).
Compound inhibition was determined at either a fixed concentration (10 μM) or at a variable inhibitor concentration (typically 50 μM to 0.1 μM in a 10 point dose response titration). Compounds were pre-incubated in the presence of enzyme for 15 minutes prior to addition of ATP and the activity remaining quantified using the above described activity assay. The % Inhibition of a compound was determined using the following formula; % Inhibition=100×(1−(experimental value−background value)/(high activity control−background value)). The IC50 value was determined using a non-linear 4 point logistic curve fit (XLfit4, IDBS) with the formula; (A+(B/(1+((x/C)^D)))), where A=background value, B=range, C=inflection point, D=curve fit parameter.

[1] = system: SKOV-3 ovarian cancer cells; experiment: Sulforhodamine B cell growth inhibition assay; type: cell-based; details: Homo sapiens, SK-OV-3, 120 h; 5 days, SRB; read-out: Ovarian GI50 range SKOV-3
Description: (§1) Breast cancer cells (MDA-MB-231 and MDA-MB-468), colon cancer cells (HCT116 and HT-29) and ovarian cancer cells (SKOV-3 and OVCAR-3) were seeded (1000 to 4000 in 80 μL per well depending on the cell growth rate) into 96 well plates 24 hours before compound overlay. Compounds were prepared as 10 mM stock solutions in 100% DMSO which were diluted with DMEM (Dulbecco's Modified Eagle's Medium) cell growth Medium (Invitrogen, Burlington, ON, Canada) containing 10% FBS (Fetal Bovine Serum) to concentrations ranging from 50 nM to 250 μM. Aliquots (20 μL) from each concentration were overlaid to 80 μL of the pre-seeded cells in the 96 well plates to make final concentrations of 10 nM to 50 μM. The cells were cultured for 5 days before the Sulforhodamine B assay (SRB) was performed to determine the compound's cell growth inhibition activity.
(§2) The cells are fixed in situ by gently aspirating off the culture media and adding 50 μL ice cold 10% trichloroacetic acid per well and incubate at 4° C. for 30-60 min. The plates are washed with H2O five times and allowed to air dry for 5 min. Addition of 50 μL 0.4% (w/v) SRB solution in 1% (v/v) acetic acid to each well and incubation for 30 min at rt completes the staining reaction. Following staining, plates are washed four times with 1% acetic acid to remove unbound dye and then allowed to air dry for 5 min. The stain is solubilized with 100 μL of 10 mM Tris pH 10.5 per well. Absorbance is read at 570 nm. The percentage (%) of relative growth inhibition was calculated by comparing to DMSO treated only cells (100%). GI50's were determined for compounds with cytotoxic activity. The GI50 was calculated using GraphPad PRISM software (GraphPad Software, Inc., San Diego, Calif., USA). GI50 (growth inhibition) is the compound concentration that causes 50% inhibition of cell growth.
(§3) In Table 2 lists GI50 value ranges for compound examples against breast cancer cell lines (MDA-MB-231, MDA-MB-468), colon cancer cell lines (HCT116, HT-29) and ovarian cancer cell lines (OVCAR-3, SKOV-3) are given. […] The GI50 ranges are indicated as “A,” “B,” and “C,” for values less than or equal to 1 μM; those greater than 1 μM and less than or equal to 10 μM; and those greater than 10 μM, respectively.

[2] = system: OVCAR-3 ovarian cancer cells; experiment: Sulforhodamine B cell growth inhibition assay; type: cell-based; details: Homo sapiens, OVCAR-3, 120 h; 5 days, SRB; read-out: Ovarian GI50 range OVCAR-3
Description: as §1, §2, §3

HT-29 colon cancer cells = experiment: Sulforhodamine B cell growth inhibition assay; type: cell-based; details: Homo sapiens, HT-29, 120 h; 5 days, SRB; read-out: Colon GI50 range HT29
Description: as §1, §2, §3

[3] = system: MDA-MB-231 breast cancer cells; experiment: Sulforhodamine B cell growth inhibition assay; type: cell-based; details: Homo sapiens, MDA-MB-231, 120 h; 5 days, SRB; read-out: Breast GI50 range MDA-MB-231
Description: as §1, §2, §3

[4] = system: HCT116 colon cancer cells; experiment: Sulforhodamine B cell growth inhibition assay; type: cell-based; details: Homo sapiens, HCT-116, 120 h; 5 days, SRB; read-out: Colon GI50 range HCT116
Description: as §1, §2, §3

[5] = system: MDA-MB-468 breast cancer cells; experiment: Sulforhodamine B cell growth inhibition assay; type: cell-based; details: Homo sapiens, MDA-MB-468, 120 h; 5 days, SRB; read-out: Breast GI50 range MDA-MB-468
Description: as §1, §2, §3

Sequence of human RIPK2 kinase (O43353 1-299): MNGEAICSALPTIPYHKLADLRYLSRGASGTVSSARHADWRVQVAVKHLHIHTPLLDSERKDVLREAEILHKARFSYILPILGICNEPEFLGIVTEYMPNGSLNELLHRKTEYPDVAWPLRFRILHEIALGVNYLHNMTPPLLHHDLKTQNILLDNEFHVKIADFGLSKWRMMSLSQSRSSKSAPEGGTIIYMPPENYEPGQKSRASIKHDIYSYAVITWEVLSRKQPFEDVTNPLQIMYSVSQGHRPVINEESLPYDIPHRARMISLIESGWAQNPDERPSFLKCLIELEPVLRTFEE

SMILES: CN1CCN(c2cccc(Nc3ncc4[nH]c(C5CCCC5)cc4n3)c2)CC1 [Example A10, 6-cyclopentyl-N-(3-(4-methylpiperazin-1-yl)phenyl)-5H-pyrrolo[3,2-d]pyrimidin-2-amine]
IC50 (human RIPK2 kinase): > 500 nM

SMILES: c1ccc(Nc2ncc3[nH]c(-c4ccccc4)cc3n2)cc1 [Example A1, N,6-diphenyl-5H-pyrrolo[3,2-d]pyrimidin-2-amine]
IC50 (human RIPK2 kinase): > 500 nM

SMILES: c1cc(Nc2ncc3[nH]c(C4CCOCC4)cc3n2)cc(N2CCOCC2)c1 [Example A14, N-(3-morpholino-phenyl)-6-(tetrahydro-2H-pyran-4-yl)-5H-pyrrolo[3,2-d] pyrimidin-2-amine]
IC50 (human RIPK2 kinase): > 500 nM

SMILES: Cc1cccc(C)c1-c1cc2nc(Nc3cccc(N4CCN(C)CC4)c3)ncc2[nH]1 [Example A6, 6-(2,6-dimethylphenyl)-N-(3-(4-methylpiperazin-1-yl)phenyl)-5H-pyrrolo[3,2-d]pyrimidin-2-amine]
GI50 [1]: ≤ 1000 nM
GI50 [2]: ≤ 1000 nM
GI50 (HT-29 colon cancer cells): ≤ 1000 nM
GI50 [3]: 1000 to 10000 nM
GI50 [4]: 1000 to 10000 nM
IC50 (human RIPK2 kinase): ≤ 100 nM

SMILES: Cc1ccccc1-c1cc2nc(Nc3cccc(CN4CCN(C)CC4)c3)ncc2[nH]1 [Example A9, N-(3-((4-methylpiperazin-1-yl)methyl)phenyl)-6-(o-tolyl)-5H-pyrrolo[3,2-d] pyrimidin-2-amine]
GI50 [1]: ≤ 1000 nM
GI50 [2]: ≤ 1000 nM
GI50 (HT-29 colon cancer cells): ≤ 1000 nM
GI50 [3]: > 10000 nM
GI50 [4]: 1000 to 10000 nM
IC50 (human RIPK2 kinase): ≤ 100 nM

SMILES: CN1CCN(c2cccc(Nc3ncc4[nH]c(-c5ccsc5)cc4n3)c2)CC1 [Example A11, N-(3-(4-methylpiperazin-1-yl)phenyl)-6-(thiophen-3-yl)-5H-pyrrolo[3,2-d]pyrimidin-2-amine]
IC50 (human RIPK2 kinase): ≤ 100 nM

SMILES: Clc1ccccc1-c1cc2nc(Nc3cccc(N4CCOCC4)c3)ncc2[nH]1 [Example A20, 6-(2-chloro-phenyl)-N-(3-morpholino-phenyl)-5H-pyrrolo[3,2-d]pyrimidin-2-amine]
IC50 (human RIPK2 kinase): ≤ 100 nM

SMILES: OCCN1CCN(c2cccc(Nc3ncc4[nH]c(-c5ccccc5Cl)cc4n3)c2)CC1 [Example A16, 2-(4-(3-((6-(2-chlorophenyl)-5H-pyrrolo[3,2-d]pyrimidin-2-yl)amino)phenyl)piperazin-1-yl) ethanol]
IC50 (human RIPK2 kinase): ≤ 100 nM

SMILES: Cc1cccc(C)c1-c1cc2nc(Nc3cccc(N4CCOCC4)c3)ncc2[nH]1 [Example A12, 6-(2,6-dimethylphenyl)-N-(3-morpholinophenyl)-5H-pyrrolo[3,2-d]pyrimidin-2-amine]
GI50 [1]: ≤ 1000 nM
GI50 [2]: ≤ 1000 nM
GI50 (HT-29 colon cancer cells): 1000 to 10000 nM
GI50 [3]: 1000 to 10000 nM
GI50 [5]: 1000 to 10000 nM
GI50 [4]: 1000 to 10000 nM
IC50 (human RIPK2 kinase): ≤ 100 nM

SMILES: Cc1ccccc1-c1cc2nc(Nc3ccc(CN4CCN(C)CC4)cc3)ncc2[nH]1 [Example A18, N-(4-((4-methylpiperazin-1-yl)methyl)phenyl)-6-(o-tolyl)-5H-pyrrolo[3,2-d] pyrimidin-2-amine]
IC50 (human RIPK2 kinase): ≤ 100 nM

SMILES: Cc1nc(Nc2ncc3[nH]c(-c4ccccc4C)cc3n2)cc(N2CCN(CCO)CC2)n1 [Example A5, 2-(4-(2-methyl-6-((6-(o-tolyl)-5H-pyrrolo[3,2-d]pyrimidin-2-yl)amino)pyrimidin-4-yl)piperazin-1-yl)ethanol]
IC50 (human RIPK2 kinase): > 500 nM

SMILES: COc1ccccc1-c1cc2nc(Nc3cccc(N4CCOCC4)c3)ncc2[nH]1 [Example A25, 6-(2-methoxy-phenyl)-N-(3-morpholino-phenyl)-5H-pyrrolo[3,2-d] pyrimidin-2-amine]
IC50 (human RIPK2 kinase): 100 to 500 nM

Continued, values first:

IC50 (human RIPK2 kinase): ≤ 100 nM
SMILES: Cc1ccccc1-c1cc2nc(Nc3ccc(N4CCN(C)CC4)cc3)ncc2[nH]1 [Example A17, N-(4-(4-methylpiperazin-1-yl)phenyl)-6-(o-tolyl)-5H-pyrrolo[3,2-d]pyrimidin-2-amine]

IC50 (human RIPK2 kinase): 100 to 500 nM
SMILES: Cc1ccccc1-c1cc2nc(NCC3CCOCC3)ncc2[nH]1 [Example A24, N-((tetrahydro-2H-pyran-4-yl)methyl)-6-(o-tolyl)-5H-pyrrolo[3,2-d]pyrimidin-2-amine]

IC50 (human RIPK2 kinase): ≤ 100 nM
SMILES: Cc1ccccc1-c1cc2nc(Nc3ccc(CN4CCOCC4)cc3)ncc2[nH]1 [Example A15, N-(4-(morpholino-methyl)phenyl)-6-(o-tolyl)-5H-pyrrolo[3,2-d] pyrimidin-2-amine]

IC50 (human RIPK2 kinase): > 500 nM
SMILES: Cc1ccccc1-c1cc2nc(NC3CCOCC3)ncc2[nH]1 [Example A23, N-(tetrahydro-2H-pyran-4-yl)-6-(o-tolyl)-5H-pyrrolo[3,2-d]pyrimidin-2-amine]

IC50 (human RIPK2 kinase): > 500 nM
SMILES: Cc1ccccc1-c1cc2nc(N[C@H]3CC[C@@H](O)CC3)ncc2[nH]1 [Example A22, (1s,4s)-4-((6-(o-tolyl)-5H-pyrrolo[3,2-d]pyrimidin-2-yl)amino) cyclohexanol]

GI50 [1]: 1000 to 10000 nM
GI50 [2]: 1000 to 10000 nM
GI50 (HT-29 colon cancer cells): 1000 to 10000 nM
GI50 [3]: 1000 to 10000 nM
GI50 [4]: 1000 to 10000 nM
IC50 (human RIPK2 kinase): ≤ 100 nM
SMILES: Cc1ccccc1-c1cc2nc(Nc3cccc(CN4CCOCC4)c3)ncc2[nH]1 [Example A7, N-(3-(morpholino-methyl)phenyl)-6-(o-tolyl)-5H-pyrrolo[3,2-d] pyrimidin-2-amine]

IC50 (human RIPK2 kinase): 100 to 500 nM
SMILES: Cc1ccccc1-c1cc2nc(N[C@H]3CC[C@@H](O)CC3)ncc2[nH]1 [Example A21, (1r,4)-4-((6-(o-tolyl)-5H-pyrrolo[3,2-d]pyrimidin-2-yl)amino) cyclohexanol]

GI50 [1]: > 10000 nM
GI50 [2]: > 10000 nM
GI50 (HT-29 colon cancer cells): > 10000 nM
GI50 [3]: > 10000 nM
GI50 [4]: > 10000 nM
IC50 (human RIPK2 kinase): ≤ 100 nM
SMILES: Cc1ccccc1-c1cc2nc(Nc3ccc(N4CCOCC4)cc3)ncc2[nH]1 [Example A8, N-(4-morpholino-phenyl)-6-(o-tolyl)-5H-pyrrolo[3,2-d]pyrimidin-2-amine]

IC50 (human RIPK2 kinase): > 500 nM
SMILES: Cc1ccccc1-c1cc2nc(NCC3(N4CCOCC4)CCCC3)ncc2[nH]1 [Example A26, N-((1-morpholino-cyclopentyl)methyl)-6-(o-tolyl)-5H-pyrrolo[3,2-d]pyrimidin-2-amine]

IC50 (human RIPK2 kinase): > 500 nM
SMILES: Cc1ccccc1-c1cc2nc(NCCCN3CCOCC3)ncc2[nH]1 [Example A19, N-(3-morpholinopropyl)-6-(o-tolyl)-5H-pyrrolo[3,2-d]pyrimidin-2-amine]
